Data as given in US6914045B2, “Glycopeptide antibiotics” (Wyeth Holdings Corporation, priority 2001, dated 2005).
In brackets after ≈: the same amount, converted by molar mass.

Key:
[1] = tested on: Staphylococcus aureus-SMITH (GC 4543); assay: acute lethal infection in mice; assay type: in vivo; details: acute lethal infection, female CD-1 mice, intraperitoneal challenge, intravenous 30 min. after infection, 7 day survival
Method in brief: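 Female CD-1 mice (20±2 g) got an intraperitoneal bacterial challenge lethal to untreated controls within 24–48 hr. Compound was dosed intravenously 30 min after infection, five mice per dose. ED50 was calculated from 7-day survival pooled across 3 tests.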

Staphylococcus sp. = assay: in vitro antibacterial evaluation, MIC by broth dilution; assay type: cell-based; details: broth dilution, 18 hours at 35° C.
Method in brief: (§1)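 Inoculum 5×10^5 CFU/mL; concentrations 64 to 0.06 μg/mL; MIC defined as lowest inhibitory level. Conducted by broth dilution under NCCLS guidelines.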

Streptococcus sp. = assay: as above; assay type: cell-based; details: broth dilution, 18 hours at 35° C.
Method in brief: as §1

Escherichia coli = assay: as above; assay type: cell-based; details: 18 hours at 35° C.
Method in brief: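 Broth dilution per NCCLS standard M7-A2 in Muller-Hinton II […], with an inoculum of 5×10^5 CFU/mL and antibiotic spanning 64-0.06 μg/mL. The MIC is the lowest concentration that inhibits growth of the organism.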

Enterococcus sp. = assay: as above; assay type: cell-based; details: broth dilution, 18 hours at 35° C.
Method in brief: as §1

CC(C)CC(=O)OC1C(O)C(CO)OC(OC2C(CO)OC(Oc3ccc(CC4NC(=O)C(C(C)c5ccc(Cl)cc5)NC(=O)CNC(=O)C(CO)NC(=O)C(C(O)C5CNC(=N)N5C5OC(CO)C(O)C(O)C5O)NC(=O)C(C(O)C5CNC(=N)N5)NC4=O)cc3)C(O)C2O)C1O (stereo not drawn) [Example 262b, Cyclo[glycyl-4-chloro-β-methylphenylalanyl-O-[4-O-[3-O-(3-methylbutanoyl)hexopyranosyl]-hexopyranosyl]tyrosyl-3-(2-iminoimidazolidin-4-yl)seryl-3-(3-hexopyranosyl-2-iminoimidazolidin-4-yl)serylseryl]]
median effective dose (ED50), Staphylococcus aureus-SMITH (GC 4543) [1]: 1.22 mg/kg
MIC Coagulase Negative Staphylococcus (GC 4547) (Staphylococcus sp.): 2 µg/mL (≈ 1.41 µM)
MIC Coagulase Negative Staphylococcus (GC 4548) (Staphylococcus sp.): 1 µg/mL (≈ 0.707 µM)
MIC Coagulase Negative Staphylococcus (GC 4549) (Staphylococcus sp.): 1 µg/mL (≈ 0.707 µM)
MIC Coagulase Negative Staphylococcus (GC 4551) (Staphylococcus sp.): 2 µg/mL (≈ 1.41 µM)
MIC Staphylococcus aureus (ATCC 29213) (Staphylococcus sp.): 4 µg/mL (≈ 2.83 µM)
MIC Staphylococcus aureus (GC 1131) (Staphylococcus sp.): 4 µg/mL (≈ 2.83 µM)
MIC Staphylococcus aureus (GC 4541) (Staphylococcus sp.): 2 µg/mL (≈ 1.41 µM)
MIC Staphylococcus aureus (GC 4542) (Staphylococcus sp.): 2 µg/mL (≈ 1.41 µM)
MIC Staphylococcus aureus (GC 4544) (Staphylococcus sp.): 4 µg/mL (≈ 2.83 µM)
MIC Staphylococcus aureus (GC 4545) (Staphylococcus sp.): 2 µg/mL (≈ 1.41 µM)
MIC Staphylococcus aureus-SMITH (GC 4543) (Staphylococcus sp.): 1 µg/mL (≈ 0.707 µM)
MIC Staphylococcus haemolyticus (GC 4546) (Staphylococcus sp.): 2 µg/mL (≈ 1.41 µM)
MIC Staphylococcus aureus (ATCC 29213) (Staphylococcus sp.; strain ATCC 29213): 4 µg/mL (≈ 2.83 µM)
MIC Staphylococcus aureus (GC 1131) (Staphylococcus sp.; strain GC 1131): 4 µg/mL (≈ 2.83 µM)
MIC Staphylococcus aureus (GC 4541) (Staphylococcus sp.; strain GC 4541): 2 µg/mL (≈ 1.41 µM)
MIC Staphylococcus aureus (GC 4542) (Staphylococcus sp.; strain GC 4542): 2 µg/mL (≈ 1.41 µM)
MIC Staphylococcus aureus (GC 4544) (Staphylococcus sp.; strain GC 4544): 4 µg/mL (≈ 2.83 µM)
MIC Staphylococcus aureus (GC 4545) (Staphylococcus sp.; strain GC 4545): 2 µg/mL (≈ 1.41 µM)
MIC Staphylococcus haemolyticus (GC 4546) (Staphylococcus sp.; strain GC 4546): 2 µg/mL (≈ 1.41 µM)
MIC Coagulase Negative Staphylococcus (GC 4547) (Staphylococcus sp.; strain GC 4547): 2 µg/mL (≈ 1.41 µM)
MIC Coagulase Negative Staphylococcus (GC 4548) (Staphylococcus sp.; strain GC 4548): 1 µg/mL (≈ 0.707 µM)
MIC Coagulase Negative Staphylococcus (GC 4549) (Staphylococcus sp.; strain GC 4549): 1 µg/mL (≈ 0.707 µM)
MIC Coagulase Negative Staphylococcus (GC 4551) (Staphylococcus sp.; strain GC 4551): 2 µg/mL (≈ 1.41 µM)
MIC Staphylococcus aureus-SMITH (GC 4543) (Staphylococcus sp.; strain SMITH GC 4543): 1 µg/mL (≈ 0.707 µM)
MIC Streptococcus agalactiae (GC 4564) (Streptococcus sp.; strain GC 4564): 1 µg/mL (≈ 0.707 µM)
MIC Streptococcus pyogenes (ID-3187) (Streptococcus sp.; strain ID-3187): 1 µg/mL (≈ 0.707 µM)
MIC Escherichia coli (ATCC 25922) (Escherichia coli; Escherichia coli (ATCC 25922)): >64 µg/mL
MIC Escherichia coli (GC 4559) (Escherichia coli; Escherichia coli (GC 4559)): >64 µg/mL
MIC Escherichia coli (GC 4560) (Escherichia coli; Escherichia coli (GC 4560)): 1 µg/mL (≈ 0.707 µM)
MIC Enterococcus avium (GC 4558) (Enterococcus sp.; Enterococcus avium (GC 4558)): 16 µg/mL (≈ 11.3 µM)
MIC Enterococcus faecalis (ATCC 29212) (Enterococcus sp.; Enterococcus faecalis (ATCC 29212)): 32 µg/mL (≈ 22.6 µM)
MIC Enterococcus faecalis (GC 4553) (Enterococcus sp.; Enterococcus faecalis (GC 4553)): 32 µg/mL (≈ 22.6 µM)
MIC Enterococcus faecalis (GC 4554) (Enterococcus sp.; Enterococcus faecalis (GC 4554)): 32 µg/mL (≈ 22.6 µM)
MIC Enterococcus faecium (GC 2243) (Enterococcus sp.; Enterococcus faecium (GC 2243)): 16 µg/mL (≈ 11.3 µM)
MIC Enterococcus faecium (GC 4556) (Enterococcus sp.; Enterococcus faecium (GC 4556)): 16 µg/mL (≈ 11.3 µM)
MIC Enterococcus faecium (GC 4557) (Enterococcus sp.; Enterococcus faecium (GC 4557)): 2 µg/mL (≈ 1.41 µM)
MIC Enterococcus faecalis (ATCC 29212) (Enterococcus sp.; strain ATCC 29212): 32 µg/mL (≈ 22.6 µM)
MIC Enterococcus faecalis (GC 2242) (Enterococcus sp.; strain GC 2242): 16 µg/mL (≈ 11.3 µM)
MIC Enterococcus faecium (GC 2243) (Enterococcus sp.; strain GC 2243): 16 µg/mL (≈ 11.3 µM)
MIC Enterococcus faecalis (GC 4552) (Enterococcus sp.; strain GC 4552): 32 µg/mL (≈ 22.6 µM)
MIC Enterococcus faecalis (GC 4553) (Enterococcus sp.; strain GC 4553): 32 µg/mL (≈ 22.6 µM)
MIC Enterococcus faecalis (GC 4554) (Enterococcus sp.; strain GC 4554): 32 µg/mL (≈ 22.6 µM)
MIC Enterococcus faecium (GC 4556) (Enterococcus sp.; strain GC 4556): 16 µg/mL (≈ 11.3 µM)
MIC Enterococcus faecium (GC 4557) (Enterococcus sp.; strain GC 4557): 2 µg/mL (≈ 1.41 µM)
MIC Enterococcus avium (GC 4558) (Enterococcus sp.; strain GC 4558): 16 µg/mL (≈ 11.3 µM)
